How the values were obtained:
[1] = Unbound cinacalcet fraction in plasma (30 kD ultrafiltration, RP-HPLC); assay type: in vitro ADME, rabbit; conditions: Recon conc. 1 mg/ml
Description: The unbound cinacalcet fractions in plasma were determined. The cinacalcet buffer solution and cinacalcet polymer micelles were mixed with rabbit plasma at 1:4 ratio, incubated at 37° C., and filtered through 30 kD ultrafiltration membrane. The filtrate and unfiltered plasma were mixed with acetonitrile at a ratio of 1:4, and the cinacalcet concentrations were determined by an RP-HPLC. Table 10 presents unbound (filtered) and total (unfiltered) cinacalcet concentrations, and calculated % unbound fractions (unbound concentration divided by total concentration).

[2] = oral, fasted subjects; cited from earlier work

C[C@@H](NCCCc1cccc(C(F)(F)F)c1)c1cccc2ccccc12 [cinacalcet]
Total conc. ([1]; 1:4 with rabbit plasma, 37° C.): 0.84 ± 0.01 mg/mL | Unbound concentration ([1]; 5 min): 92 ± 16 µg/mL | fraction unbound at 5 min, 0.2 mg/mL ([1]; rabbit, rabbit plasma, 5 min): 0.11 | Absolute bioavailability [2]: 20-25%

Reference: patent US20260199234A1, “PHARMACEUTICAL COMPOSITIONS OF POLYMERIC MICELLAR CINACALCET, AND METHODS OF PREPARATION AND USE THEREOF” (HANGZHOU SHIXI PHARMACEUTICAL TECHNOLOGY CO., LTD., priority 2023, published 2026)
